Like-named read-outs stand apart in the source and are kept apart here.
How the values were obtained:
[1] = tested on: panel of cell lines derived from solid tumors; experiment: Solid tumor cell line panel, fraction of surviving cells after 72 hours; assay type: cell-based
Procedure: Compound IIa was tested against a panel of cell lines derived from solid tumors as described in See also McDermott, U., Sharma, S. V., Dowell, L., Greninger, P., Montagut, C., Lamb, J., Archibald, H., Raudales, R., Tam, A., Lee, D., Rothenberg, S. M., Supko, J. G., Sordella, R., Ulkus, L. E., Iafrate, A. J., Maheswaran, S., Njauw, C. N., Tsao, H., Drew, L., Hanke, J. H., Ma, X. J., Erlander, M. G., Gray, N. S., Haber, D. A., and Settleman, J. (2007), Identification of genotype-correlated sensitivity to selective kinase inhibitors by using high-throughput tumor cell line profiling. Proc. Natl. Acad. Sci. U.S. A 104, 19936-19941 (2007).) Cells were treated with the compound for 72 hours and the fraction of surviving cells, as compared to an untreated control, was reported. Table 17 lists the name of the cell line, the organ of origin, the fraction of surviving cells at the three concentrations tested (0.2 nM, 2.0 nM and 20 nM) and a sensitivity score. The sensitivity score was from 5 (most sensitive) to 1 (least sensitive) and the scoring was as follows: 5=surviving fraction≦0.2 at 0.2 nM; 4=0.2<surviving fraction≦0.5 at 0.2 nM; 3=surviving fraction>0.5 at 0.2 nM and ≦0.5 at 2.0 nM; 2=surviving fraction>0.5 at 2.0 nM and ≦0.5 at 20 nM; 1=surviving fraction>0.5 at 20 nM.

[2] = In vivo pharmacokinetic parameters (clearance, half-life, AUC)
RL = experiment: CellTiter-Glo, hematologic malignancy panel; assay type: cell-based, human; conditions: NHL; for GI50: Homo sapiens
From the text: (§1) Identification of tumor types that are the most sensitive to the KSP inhibitors of the present invention can be accomplished using an unbiased approach that uses several cell-based assays. The assays chosen were as follows: • CellTiter-Glo®. This is an assay designed to measure ATP concentration in a cell culture, and can be correlated to cell number. Briefly CellTiter-Glo® (Promega Corporation) is a homogeneous method using the single CellTiter-Glo® reagent to detect ATP wherein ATP in the assay drives the activity of a thermostable luciferase to create a luminescent signal which can then be measured and correlated with the number of viable cells. Briefly, for adherent cells, 1,000 to 5,000 cells/well were plated in 96-well plates (100 μl/well) and let to adhere for 24 hours before being treated with drug. For non-adherent cells, 1,000 to 10,000 cells/well were plated in 96-well plates (100 μl/well) and immediately treated with drug. Drug dilutions were prepared in DMSO at 1000 times the final concentration. These dilutions were then diluted 1/100 in growth media before being added to the cells (11 μl/well) to achieve the desired final concentration. After 48 h in a 37° C. tissue culture incubator, the plates were processed for the CellTiter-Glo®assay according to the manufacturer's instructions. Protocol for a 72 hour cell proliferation assay: The 72 hour assay was performed the same way as the 48 hour assay except for the following modifications: For adherent cells, 500 to 5,000 cells/well were plated in 96-well plates (90 μl/well cell growth media) and left to adhere for 24 hours before being treated with drug. For non-adherent cells, 1,000 to 10,000 cells/well were plated in 96-well plates (90 μl/well cell growth media) and immediately treated with drug. Data values presented represent the concentration of test compound required for a 50% reduction in growth. • LDH release. The Cytotoxicity Detection KitPLUS (LDH) assay (Roche Diagnostics, Manheim, Germany) measures the amount of LDH released in the media by dying cells; LDH catalyzes the conversion of lactate into pyruvate. The enzymatic reaction is coupled to a chemical reaction that uses a tetrazolium salt to form a formazan that is red and can be detected by its absorbance at 490 nm. This assay measures the amount of cell death after drug treatment. Cells were plated at 10,000 cells/well in 96-well plates (100 μl/well). Adherent cells were let to adhere for 24 hours before being treated with drug, whereas non-adherent cells were immediately treated with drug. Drug dilutions were prepared in DMSO at 1000 times the final concentration. These dilutions were then diluted 1/100 in growth media before being added to the cells (11 μl/well) to achieve the desired final concentration. After 48 h in a 37° C. tissue culture incubator, the plates were processed for the Cytotoxicity Detection KitPLUS (LDH) assay according to the manufacturer's instructions. The media only values were subtracted from all the data points before analysis. Data values presented correspond to the compound concentration wherein LDH output is at half maximal level. • Caspase-Glo® 3/7. The Caspase-Glo® 3/7 Assay (Promega Corporation) is a homogeneous luminescent assay that measures caspase-3/7 activities. The assay provides a proluminescent caspase-3/7 DEVD-aminoluciferin substrate and a thermostable luciferase in a reagent optimized for caspase-3/7 activity, luciferase activity and cell lysis. Adding the single Caspase-Glo® 3/7 Reagent results in cell lysis, followed by caspase cleavage of the substrate. This liberates free aminoluciferin, which is consumed by the luciferase, generating a luminescent signal. The signal is proportional to caspase-3/7 activity. Data values presented correspond to the compound concentration wherein caspase 3/7 activity is at half maximal level. […]

MV4; 11Luc = experiment: CellTiter-Glo, hematologic malignancy panel; assay type: cell-based, human; conditions: AML; for GI50: Homo sapiens
From the text: as §1

KMS11-Luc = experiment: CellTiter-Glo, hematologic malignancy panel; assay type: cell-based, human; conditions: MM; for GI50: Homo sapiens
From the text: as §1

MV4; 11 = experiment: CellTiter-Glo, hematologic malignancy panel; assay type: cell-based, human; conditions: AML; for GI50: Homo sapiens
From the text: as §1

[3] = GI50 in nM, read-out: Log(GI50) (converted)

CC(C)(C)[C@H](c1nc(-c2cc(F)ccc2F)cn1Cc1ccccc1)N(CC[C@H](N)CF)C(=O)CO [Compound IIa] showed an average sensitivity score ([1]; brain) of 3.21, an average sensitivity score ([1]; cervix) of 3.00 and an average sensitivity score ([1]; ovary) of 3.38. For the same molecule, the average sensitivity score ([1]; skin) was 3.02, the average sensitivity score ([1]; stomach) was 3.32 and the average sensitivity score ([1]; thyroid) was 3.00. It also gave an AUC [2] of 1930 ng·h/mL, a half-life [2] of 1.83 h and a clearance ([2]; read-out: In vivo Clearance rate) of 41 mL/min/kg. For the same molecule, the GI50 (RL; [3]) was 20 nM, the GI50 (RL; read-out: GI50) was 20 nM and the “Differential vs mean Log(GI50)” value (RL) was −1.771. For the same molecule, the “Differential vs mean Log(GI50)” value (MV4; 11Luc) was 0.509, the GI50 (MV4; 11Luc; [3]) was 0.105 nM and the GI50 (MV4; 11Luc; read-out: GI50) was 0.11 nM. The GI50 (KMS11-Luc; [3]) was 0.29 nM, the GI50 (KMS11-Luc; read-out: GI50) was 0.29 nM and the “Differential vs mean Log(GI50)” value (KMS11-Luc) was 0.068. The “Differential vs mean Log(GI50)” value (MV4; 11) was 0.644, the GI50 (MV4; 11; [3]) was 0.0769 nM and the GI50 (MV4; 11; read-out: GI50) was 0.08 nM.

Source: US8252832B2, “Kinesin inhibitors as cancer therapeutics” (Novartis AG, priority 2007, dated 2012)
